Measured values as given in patent US8822698B2, “Aminoacid derivatives, their process of preparation and their therapeutical uses as inhibitors of oncogenic signals by the Met family” (Universite D'Aix-Marseille, priority 2009, dated 2014).

Experiments:
[1] = tested on: Met phosphorylation, HepG2 cells; experiment: Met phosphorylation upon HGF stimulation in HepG2 cells; assay type: cell-based, human
Experimental: After starvation, cells were pretreated with inhibitors, then stimulated with HGF, and total extracts were analyzed as described (Maina et al., Mol Cell 7, 1293-1306, 2001). Antibodies used were anti-tubulin (Sigma), anti-phospho Y1234-1235-Met, anti-Akt, anti-phospho-Akt, anti-phospho-Gab1, anti phosphor-ErbBs, anti-phospho-PDGFR, anti-PDGFRs, anti-ERKs (Cell Signaling), anti-ErbBs, anti-Met (Santa Cruz).
Activation of Met by HGF can be biochemically evaluated by following its phosphorylation levels and activation of downstream targets. We started to biochemically characterise the inhibitory properties of identified compounds by following Met phosphorylation and its downstream targets in HepG2 cells. […] These findings were further supported using other cell lines, such as MDA-MB231 human breast cancer cells (FIG. 2).

ACHN = experiment: NCI 60 human tumour cell line screen; assay type: cell-based; details: conc. 10^−5M, Renal Cancer
Excerpt: (§1) Compound of example 4 was screened in the NCI 60 human tumour cell line anticancer drug screen (Shoemaker et al Nature reviews 6, 2006, 813-823).

SF-539 = experiment: NCI 60 human tumour cell line screen; assay type: cell-based; details: conc. 10^−5M; SF-539, CNS Cancer
Excerpt: as §1

MDA-MB-231/ATCC = experiment: NCI 60 human tumour cell line screen; assay type: cell-based; details: conc. 10^−5M, Breast Cancer
Excerpt: as §1

OVCAR-3 = experiment: NCI 60 human tumour cell line screen; assay type: cell-based; details: conc. 10^−5M; OVCAR-3, Ovarian Cancer
Excerpt: as §1

SF-295 = experiment: NCI 60 human tumour cell line screen; assay type: cell-based; details: conc. 10^−5M; SF-295, CNS Cancer
Excerpt: as §1

MOLT-4 = experiment: NCI 60 human tumour cell line screen; assay type: cell-based; details: conc. 10^−5M; MOLT-4, Leukemia
Excerpt: as §1

U251 = experiment: NCI 60 human tumour cell line screen; assay type: cell-based; details: conc. 10^−5M; U251, CNS Cancer
Excerpt: as §1

T-47D = experiment: NCI 60 human tumour cell line screen; assay type: cell-based; details: conc. 10^−5M, Breast Cancer
Excerpt: as §1

M14 = experiment: NCI 60 human tumour cell line screen; assay type: cell-based; details: conc. 10^−5M; M14, Melanoma
Excerpt: as §1

HCT-15 = experiment: NCI 60 human tumour cell line screen; assay type: cell-based; details: conc. 10^−5M; HCT-15, Colon Cancer
Excerpt: as §1

UO-31 = experiment: NCI 60 human tumour cell line screen; assay type: cell-based; details: conc. 10^−5M; UO-31, Renal Cancer
Excerpt: as §1

UACC-62 = experiment: NCI 60 human tumour cell line screen; assay type: cell-based; details: conc. 10^−5M; UACC-62, Melanoma
Excerpt: as §1

CAK I-1 = experiment: NCI 60 human tumour cell line screen; assay type: cell-based; details: conc. 10^−5M; CAK I-1, Renal Cancer
Excerpt: as §1

SK-OV-3 = experiment: NCI 60 human tumour cell line screen; assay type: cell-based; details: conc. 10^−5M; SK-OV-3, Ovarian Cancer
Excerpt: as §1

A498 = experiment: NCI 60 human tumour cell line screen; assay type: cell-based; details: conc. 10^−5M; A498, Renal Cancer
Excerpt: as §1

HOP-92 = experiment: NCI 60 human tumour cell line screen; assay type: cell-based; details: conc. 10^−5M; HOP-92, Non-Small Cell Lung Cancer
Excerpt: as §1

SK-MEL-5 = experiment: NCI 60 human tumour cell line screen; assay type: cell-based; details: conc. 10^−5M; SK-MEL-5, Melanoma
Excerpt: as §1

MDA-MB-468 = experiment: NCI 60 human tumour cell line screen; assay type: cell-based; details: conc. 10^−5M; MDA-MB-468, Breast Cancer
Excerpt: as §1

HOP-62 = experiment: NCI 60 human tumour cell line screen; assay type: cell-based; details: conc. 10^−5M; HOP-62, Non-Small Cell Lung Cancer
Excerpt: as §1

BT-549 = experiment: NCI 60 human tumour cell line screen; assay type: cell-based; details: conc. 10^−5M; BT-549, Breast Cancer
Excerpt: as §1

NCl-H23 = experiment: NCI 60 human tumour cell line screen; assay type: cell-based; details: conc. 10^−5M; NCl-H23, Non-Small Cell Lung Cancer
Excerpt: as §1

HCT-116 = experiment: NCI 60 human tumour cell line screen; assay type: cell-based; details: conc. 10^−5M; HCT-116, Colon Cancer
Excerpt: as §1

OVCAR-8 = experiment: NCI 60 human tumour cell line screen; assay type: cell-based; details: conc. 10^−5M; OVCAR-8, Ovarian Cancer
Excerpt: as §1

A549/ATCC = experiment: NCI 60 human tumour cell line screen; assay type: cell-based; details: conc. 10^−5M, Non-Small Cell Lung Cancer
Excerpt: as §1

SR = experiment: NCI 60 human tumour cell line screen; assay type: cell-based; details: conc. 10^−5M, Leukemia
Excerpt: as §1

DU-145 = experiment: NCI 60 human tumour cell line screen; assay type: cell-based; details: conc. 10^−5M; DU-145, Prostate Cancer
Excerpt: as §1

K-562 = experiment: NCI 60 human tumour cell line screen; assay type: cell-based; details: conc. 10^−5M; K-562, Leukemia
Excerpt: as §1

SF-268 = experiment: NCI 60 human tumour cell line screen; assay type: cell-based; details: conc. 10^−5M; SF-268, CNS Cancer
Excerpt: as §1

RPMI -8226 = experiment: NCI 60 human tumour cell line screen; assay type: cell-based; details: conc. 10^−5M; RPMI -8226, Leukemia
Excerpt: as §1

SW-620 = experiment: NCI 60 human tumour cell line screen; assay type: cell-based; details: conc. 10^−5M; SW-620, Colon Cancer
Excerpt: as §1

RXF 393 = experiment: NCI 60 human tumour cell line screen; assay type: cell-based; details: conc. 10^−5M; RXF 393, Renal Cancer
Excerpt: as §1

LOX IMVI = experiment: NCI 60 human tumour cell line screen; assay type: cell-based; details: conc. 10^−5M, Melanoma
Excerpt: as §1

KM12 = experiment: NCI 60 human tumour cell line screen; assay type: cell-based; details: conc. 10^−5M; KM12, Colon Cancer
Excerpt: as §1

PC-3 = experiment: NCI 60 human tumour cell line screen; assay type: cell-based; details: conc. 10^−5M; PC-3, Prostate Cancer
Excerpt: as §1

OVCAR-5 = experiment: NCI 60 human tumour cell line screen; assay type: cell-based; details: conc. 10^−5M; OVCAR-5, Ovarian Cancer
Excerpt: as §1

SMILES: O=C(Cc1cc(C(F)(F)F)cc(C(F)(F)F)c1)N[C@@H](Cc1ccccc1)C(=O)Nc1ccc(-c2cn3c(n2)sc2ccccc23)cc1 [Example 4, (S)-2-(3,5-bis(trifluoromethyl)phenylacetamido)-3-phenyl-N-[4-(imidazo[2,1-b]benzothiazol-2-yl)phenyl]propanamide]
- Met phosphorylation [1]: significantly reduced
- Growth Percent (ACHN): 81.23%
- Growth Percent (SF-539): 36.76%
- Growth Percent (MDA-MB-231/ATCC): 17.15%
- Growth Percent (OVCAR-3): 2.50%
- Growth Percent (SF-295): 42.18%
- Growth Percent (MOLT-4): 43.46%
- Growth Percent (U251): 34.24%
- Growth Percent (T-47D): 67.66%
- Growth Percent (M14): 30.58%
- Growth Percent (HCT-15): 44.16%
- Growth Percent (UO-31): 67.05%
- Growth Percent (UACC-62): 69.45%
- Growth Percent (CAK I-1): 53.37%
- Growth Percent (SK-OV-3): 96.62%
- Growth Percent (A498): 120.10%
- Growth Percent (HOP-92): 71.89%
- Growth Percent (SK-MEL-5): 10.83%
- Growth Percent (MDA-MB-468): 78.09%
- Growth Percent (HOP-62): 80.02%
- Growth Percent (BT-549): 82.05%
- Growth Percent (NCl-H23): 39.55%
- Growth Percent (HCT-116): 21.40%
- Growth Percent (OVCAR-8): 3.54%
- Growth Percent (A549/ATCC): 31.71%
- Growth Percent (SR): 58.33%
- Growth Percent (DU-145): 70.37%
- Growth Percent (K-562): 63.10%
- Growth Percent (SF-268): 29.28%
- Growth Percent (RPMI -8226): 66.73%
- Growth Percent (SW-620): 12.13%
- Growth Percent (RXF 393): 47.02%
- Growth Percent (LOX IMVI): 26.60%
- Growth Percent (KM12): 16.15%
- Growth Percent (PC-3): 38.29%
- Growth Percent (OVCAR-5): 97.36%
